From patent US12599588B2, “Inhibitor for V-ATPase activity, antibacterial agent, medicine, antibacterial method and screening method” (Japan Science and Technology Agency, priority 2019, dated 2026)
Entries after “also recorded” stand apart in the source; their conditions may differ. Like-named read-outs stand apart in the source and are kept apart here.

How the values were obtained:
[1] = test system: enterococci (Enterococcus hirae); test: Growth experiment of enterococci (secondary screening), OD600 at pH 7.0 and pH 8.5; format: cell-based; parameters: Growth inhibition rate (%): concentration or dose not given beside the values; conditions: for Specificity: growth inhibition at pH 8.5 versus pH 7.0
Experimental: In the culture of enterococci (Enterococcus hirae), a culture medium in which the Na^+ concentration had been adjusted by adding a buffer solution using 2% tryptone and 1% yeast extract as the base was used. In a case of adding glucose, glucose prepared in a 50% solution was added so as to be 1% into the culture medium when the culture medium was used. The whole amount 200 μL was cultured using a 96-well plate, and OD600 was measured every hour by using a plate reader. By using culture media at pH 7.0 and pH 8.5, the effect of pH on the growth was observed. In culture of bacteria, the pH often fluctuates largely due to the decomposition of the sugars required for the growth, and it is extremely important to maintain a constant pH in this experiment, and therefore, the pH was maintained constant with the addition of a buffer suitable for each pH. Since the V-ATPase is expressed only under an alkaline condition, the growth inhibition observed with the addition of an inhibitor is largely dependent on the pH.
IC50 and the like of the above 24 kinds of compounds are described in the following table. […] Furthermore, with respect to the symbol “n.a.”, a compound having a growth inhibition rate of 60% or more at pH 7.0 is determined that there was the growth inhibition. In addition, the growth inhibition rate of a compound having no clear inhibition is also recorded for reference.

[2] = Oral administration to mice (intestinal environment), toxicity observation; format: in vivo; conditions: 20 mM suspension, 0.5 ml orally once a day, five days
Experimental: To each of four mice, 0.5 ml of the suspension was orally administered once a day, and on five days after the start of administration, the mice were dissected and the feces and intestinal tract contents were collected, and the intestinal pH and sodium ion concentration were measured.

[3] = test system: Enterococcus faecium (vancomycin-resistant enterococci, VRE); test: Growth inhibition of pathogenic bacteria, VRE E. faecium; format: cell-based; conditions: pH 7.0, pH 7.5, pH 8.0; OD600
Experimental: (§1) As the pathogenic bacteria, Enterococcus faecalis and Enterococcus faecium that are vancomycin-resistant enterococci (VRE), and Clostridium difficile that leads to deterioration of intestinal environment and is resistant to multiple drugs were prepared. The VRE were cultured by using culture media at pH 7.0, pH 7.5, and pH 8.0, the C. difficile was cultured by using culture media at pH 6.5, pH 7.0, and pH 7.5, and the difference in the number of bacteria was confirmed by measuring OD600.
(§2) The data of pH 7.0, pH 7.5, and pH 8.0 are shown in order from the top of FIG. 6. […] The data of pH 6.5, pH 7.0, and pH 7.5 are shown in order from the top of FIG. 7.

[4] = test system: E. faecium of VRE; test: Test in VRE-infected mice, number of live VRE in the intestine; format: in vivo; conditions: antibiotic-treated mice infected with E. faecium VRE
Experimental: Mice treated with antibiotics were infected with E. faecium of VRE, and V-161 was administered to the mice.

[5] = test system: Clostridium difficile; test: Growth inhibition of pathogenic bacteria, C. difficile; format: cell-based; conditions: pH 6.5, pH 7.0, pH 7.5; OD600
Experimental: as §1, §2

[6] = test system: Enterococcus faecalis (vancomycin-resistant enterococci, VRE); test: Growth inhibition of pathogenic bacteria, VRE E. faecalis; format: cell-based; conditions: pH 7.0, pH 7.5, pH 8.0; OD600
Experimental: as §1, §2

[7] = target: T1, V-ATPase (purified from enterococci or recombinant E. coli) (Enterococcus hirae, UniProt P43439+P43457); test: ATPase activity measurement (molybdenum blue method, primary screening); format: biochemical
T1 construct: made in house; host or cells: Enterococcus hirae (native) or recombinant E. coli
Experimental: The ATPase activity can be measured by a molybdenum blue method for measuring absorbance of the inorganic phosphoric acid generated by hydrolysis of ATP. As the reaction conditions, conditions for measuring the ATPase activity can be adopted. As the buffer solution used in the reaction, Tris-HCl buffer can be used. The reaction time is usually 10 to 60 minutes, but can be appropriately adjusted depending on the air temperature or the like. The reaction of V-ATPase is terminated with the addition of a surfactant such as sodium dodecyl sulfate (SDS), and into which a color-developing liquid (such as ferrous sulfate) is added to give a color, and then the concentration of the inorganic phosphoric acid can be calculated by the measurement of the absorbance at a wavelength of 650 nm.
From the concentration of inorganic phosphoric acid calculated above, the inhibition rate of the V-ATPase reaction can be calculated. That is, a graph is created in which the inhibition rate is plotted on the vertical axis and the concentration of compound is plotted on the horizontal axis, and the concentration (IC50) at which the inhibition rate becomes 50% is determined. As the concentration of compound at which IC50 is obtained becomes lower, a higher V-ATPase inhibitory effect is exerted with a small amount, and accordingly, the compound can be taken as a candidate compound for the inhibitor for V-ATPase activity.
The V-ATPase was prepared by the method disclosed in the following papers. • Paper 1: Takeshi Murata, et. al, “Purification and Reconstitution of Na^+-translocating Vacuolar ATPase from Enterococcus hirae”, J. Biol. Chem. 272, 24885-24890 (1997) • Paper 2: Takeshi Murata, et. al, “Torque Generation of Enterococcus hirae V-ATPase”, J. Biol. Chem. 289, 31212-31223 (2014)
ATPase activity measurement was conducted by a molybdenum blue method that quantifies the inorganic phosphoric acid generated by hydrolysis of ATP with the use of absorbance measurement. The measurement was conducted in a 96-well plate, and 0.05% DDM (n-dodecyl-β-D-maltoside), 10 μg/mL of V-ATPase (purified from enterococci or recombinant E. coli), and 20 μM of a compound were added into a buffer (100 mM Tris-HCl at pH 8.5, 100 mM NaCl, 5 mM MgSO4, 10% glycerol). Into the mixture obtained above, ATP was added so as to be 5 mM, the whole amount was set to 100 μL, the reaction was started while stirring the mixture with a stirrer, and the reaction time was set to 30 minutes. Since the ATPase activity changes largely depending on the reaction temperature, the reaction time was adjusted within the range of 10 to 60 minutes corresponding to the air temperature on the day of the experiment. With the addition of 50 μL of 20% SDS, the V-ATPase was denatured and the reaction was terminated, and into the resultant mixture, 75 μL of color-developing liquid (5% ferrous sulfate, 1.6% ammonium molybdate, and 1 M sulfuric acid) was added to give a color. Immediately, the absorbance at a wavelength of 650 nm was measured by using a plate reader. Four kinds of KH2PO4 aqueous solutions of 0.2 mM, 0.5 mM, 1.0 mM, and 1.5 mM were reacted with MQ (ultrapure water) in the same experiment system, and then the activity of V-ATPase was measured by determining the concentration of generated inorganic phosphoric acid with the use of a created calibration curve. In this regard, a compound that had inhibited 50% or more of the activity of V-ATPase was diluted stepwisely so as to have a concentration of 10 μM, 5 μM, 2 μM, 1 μM, 500 nM, 200 nM, 100 nM, and 50 nM, and the measurement similar to the above was conducted.
From the results of the above measurement of ATPase activity, the inhibition rate was calculated comparing the decrease in the activity by assuming the activity under the condition of no compound addition as 100. A graph was created in which the inhibition rate was plotted on the vertical axis and the concentration of compound was plotted on the horizontal axis (FIG. 2). […]

[8] = Table 2, E. hirae growth, pH not stated (media pH 7.0 and pH 8.5)
[9] = Table 3, 2-phenyl benzimidazole derivatives
[10] = IC50 (nM), Table 2, inhibition of V-ATPase ATPase activity, pH 8.5 buffer
[11] = high affinity for V-ATPase (IC50), unit inferred
[12] = Table 2, inhibition of V-ATPase ATPase activity, pH 8.5 buffer, read-out: IC50
[13] = Table 4, (1,2,4-oxadiazol-3-yl)phenyl derivatives
[14] = IC50 (nM), Table 4, (1,2,4-oxadiazol-3-yl)phenyl derivatives

| Structure (SMILES) | Growth inhibition rate (%) [1, 8] [%] | Specificity ([1]; Table 2) | IC50 [7, 10] [nM] | IC50 [7, 12] [nM] | also measured |
| --- | --- | --- | --- | --- | --- |
| Cc1ccc2nc(-c3ccc(N(C)C)cc3)[nH]c2c1 [Compound V-161, N,N-dimethyl-4-(6-methyl-1H-benzo[d]imidazol-2-yl)aniline] | 88.7 | + (there was no growth inhibition at pH 7.0 but was the growth inhibition at pH 8.5) | 85 | – | non-specific inhibition / non-specific bond [1]: no non-specific inhibition; Growth inhibition rate (%) [1, 9]: 88.7%; Specificity ([1]; Table 3): + (there was no growth inhibition at pH 7.0 but was the growth inhibition at pH 8.5); toxicity in mice [2]: toxicity was not observed; growth of E. faecium (VRE) (FIG. 6) [3]: inhibited in a pH-dependent manner; also recorded: more strongly affected by the V-161 than E. faecalis; decrease of VRE in the cecum, large intestine, and feces versus controls (FIG. 10) ([4]; cecum, large intestine, feces): around 50%; decrease of VRE in the small intestine versus controls (FIG. 10) ([4]; small intestine): 97%; growth of C. difficile (FIG. 7) [5]: inhibited even under a neutral or acidic condition; growth of E. faecalis (VRE) (FIG. 6) [6]: inhibited in a pH-dependent manner; IC50 ([7]; IC50 (nM), Table 3, 2-phenyl benzimidazole derivatives): 85 nM; IC50 [7, 11]: ≤ 400 nM |
| O=C1N=C(O)N=C(O)C1=Cc1ccc(-c2ccc([N+](=O)[O-])cc2)o1 [Compound V-278] | 44.4 | + (there was no growth inhibition at pH 7.0 but was the growth inhibition at pH 8.5) | 250 | – | – |
| COc1ccc(C(=O)N/N=C/C(C)=C/c2ccc(C(C)C)cc2)cc1 [Compound V-153] | 13.3 | − (there was no growth inhibition in any case) | – | 1000 | – |
| CC(Cc1ccc(O)c(O)c1)C(C)Cc1ccc(O)c(O)c1 (stereo not shown) [Compound V-115] | 0.3 | − (there was no growth inhibition in any case) | 400 | – | – |
| O=C(c1cnc(Nc2nc3ccccc3o2)nc1)c1cc(Cl)cc(Cl)c1O [Compound V-207] | 12.0 | − (there was no growth inhibition in any case) | – | 5000 | – |
| CCCCCCCCCOc1ccc(C=C2C(=O)NC(=O)NC2=O)cc1 [Compound V-130, 5-(4-(nonyloxy)benzylidene)pyrimidine-2,4,6 (1H,3H,5H)-trione] | 88.2 | − (there was no growth inhibition in any case) | 20 | – | non-specific inhibition / non-specific bond [1]: non-specific inhibition; IC50 [7, 11]: ≤ 400 nM |
| Cc1ccccc1OCc1nc(-c2ccc(NC(=O)c3cccs3)cc2)no1 [Compound V-234, N-(4-(5-((o-tolyloxy)methyl)-1,2,4-oxadiazol-3-yl)phenyl)thiophene-2-carboxamide] | 75.5 | + (there was no growth inhibition at pH 7.0 but was the growth inhibition at pH 8.5) | 40 | – | non-specific inhibition / non-specific bond [1]: no non-specific inhibition; Growth inhibition rate (%) [1, 13]: 75.5%; IC50 [7, 14]: 40 nM; IC50 [7, 11]: ≤ 400 nM |
| CCCOc1ccc(/C=N/Nc2nc3ccccc3[nH]2)c(OCCC)c1 [Compound V-289] | 55.0 | + (there was no growth inhibition at pH 7.0 but was the growth inhibition at pH 8.5) | – | 600 | – |
| CCCc1ccc(OCc2nc(-c3ccc(NC(=O)c4cccs4)cc3)no2)cc1 [Compound V-234-01] | – | – | – | – | Growth inhibition rate (%) [1, 13]: 76.9%; IC50 [7, 14]: 50 nM |
| Cc1ccc2[nH]c(-c3ccc(Br)cc3)nc2c1 [Compound V-161-03] | – | – | – | – | Growth inhibition rate (%) [1, 9]: 89.8%; Specificity ([1]; Table 3): + (there was no growth inhibition at pH 7.0 but was the growth inhibition at pH 8.5); IC50 ([7]; Table 3, 2-phenyl benzimidazole derivatives, read-out: IC50): 120 nM |
| COc1ccc(C(c2ccc3cccnc3c2O)N2CCOCC2)cc1 (stereo not shown) [Compound V-201] | 19.6 | − (there was no growth inhibition in any case) | – | 4000 | – |
| CCOc1ccc2nc3cc(N)ccc3c(N)c2c1 [Compound V-170] | 49.7 | + (there was no growth inhibition at pH 7.0 but was the growth inhibition at pH 8.5) | – | 10000 | – |
